# Like-named read-outs stand apart in the source and are kept apart here.
# What was measured:
# [1] = Pharmacokinetics and metabolism after iv and po administration; type: in vivo; conditions: for half-life: mean ± SD, read-out: t½ (converted); for MRT last: read-out: MRT0-last; for AUC(0-t): up to 7 h
# Experimental: The plasma concentration-time profiles of the parent compounds and metabolites after administration iv and po to male C57/BL6 mice are presented in Figure 2, Figure 3 and Figure 4. Artemiside was quantifiable up to 24 h in all mice dosed iv and up to 7 h po (lower limit of quantitation LLOQ = 1.6 ng/mL or 0.004 μM) (Figure 2). […] For both artemiside and artemisox, the metabolite artemisone was quantifiable up to 3 h in both the po and iv groups (Figure 2 and Figure 3). Thereby it is confirmed that artemiside is rapidly converted via artemisox into artemisone. Artemisone itself was quantifiable up to three hours post dose (Figure 4). The mean circulating concentrations for the compounds and their metabolites are presented in Table S3a–f in the Supplementary Material 1. The metabolite M1 was also detected upon administration of artemiside, artemisox, and artemisone, but it was not quantified here; chromatograms indicating the presence of M1 are illustrated in Figure S3a–c in the Supplementary Material 1. In addition, the plasma concentration-time curves for artemiside and its metabolites artemisone and M1 following iv and po dosing in the same murine model are presented and discussed in detail elsewhere (cf. Figure 4 in reference).
# All work was conducted with prior approval of the animal ethics committee of the University of Cape Town in accordance with the South African National Standards for the Care and Use of Animals for Scientific Purposes and guidelines from the South African Department of Health. The requirements and methods for the pharmacokinetics in vivo involving po and iv drug administration, sample extraction, analyses of samples by LC-MS/MS, and data analyses are described elsewhere. For the animal experiments and formulations, the compounds were dissolved in a 10:60:30 mixture of N,N-dimethylacetamide-polypropylene glycol-polyethylene glycol for intravenous dosing (iv) at 5 mg/kg. For the oral dose (po), compounds were individually dosed as a suspension in 0.5% (w/v) hydroxypropylmethylcellulose in water with 0.2% Tween80 at 50 mg/kg to male C57/BL6 mice (n = 3 for each group). For PK sampling, blood samples were collected at predetermined times (0.08, 0.25, 0.5, 1, 3, 5, 7, and 24 h) for both po and iv dosing via tail bleeding into heparinized tubes, centrifuged, and the plasma samples were stored at −80 °C until extraction. For preparation of samples, the frozen plasma samples were thawed and 15 μL was extracted by liquid–liquid extraction using a universal buffer (pH8) containing 10 ng/mL of the internal standard and ethyl acetate, and the extract was vortexed and centrifuged. Calibration standards and quality controls were extracted following the same procedure. Supernatants were dried down, reconstituted, and injected onto the column for LC-MS/MS analysis using an AB SCIEX 5500 QTRAP instrument coupled to an Agilent 1260 HPLC detection system as previously described.
# Toxoplasma gondii (Tg) [2] = test system: Toxoplasma gondii (Tg); set-up: method as in PMID 19635951; conditions: read-out: EC50 against Tg in vitro; cited from earlier work
# [3] = test system: type II tachyzoites (PRU-Luc-GFP); conditions: sc 10 mg/kg/d for 8 days; cited from earlier work
# Toxoplasma gondii (Tg) [4] = test system: Toxoplasma gondii (Tg); set-up: method as in PMID 19635951; conditions: IFN-γ−/− female mice, 10 mg/kg/d for 8 days after cessation of sulfadiazine; cited from earlier work
# P. falciparum W2 = test system: P. falciparum W2; set-up: method as in ref S3; conditions: [3H]-hypoxanthine assay; ref S3; cited from earlier work
# [5] = cited from earlier work
# HepG2 = conditions: ref S3, cited from earlier work
# P. berghei sporozoites = conditions: cited from earlier work
# [6] = male, C57/BL6, mouse, plasma, iv 5 mg/kg, parent drug
# [7] = male, C57/BL6, mouse, plasma, po 50 mg/kg, parent drug
smiles,measurement,setting,value
"C[C@H]1[C@H](N2CCS(=O)(=O)CC2)O[C@@H]2O[C@@]3(C)CC[C@H]4[C@H](C)CC[C@@H]1[C@@]24OO3 [Artemisone 7, Artemisone]",half-life,"[1]; male, C57/BL6, mouse, plasma, iv, 5 mg/kg, iv 5 mg/kg, parent drug",24 min
same,concentration at 0.08 h,"[1]; male, C57/BL6, mouse, plasma, po, 50 mg/kg, 0.08 h after po 50 mg/kg artemiside 5, read-out: Mean po circulating concentration",1000 nM
same,concentration at 0.08 h,"[1]; male, C57/BL6, mouse, plasma, po, 50 mg/kg, 0.08 h after po 50 mg/kg artemisone 7, read-out: Mean po circulating concentration",1630 nM
same,concentration at 0.08 h,"[1]; male, C57/BL6, mouse, plasma, po, 50 mg/kg, 0.08 h after po 50 mg/kg artemisox 6, read-out: Mean po circulating concentration",3640 nM
same,concentration at 0.25 h,"[1]; male, C57/BL6, mouse, plasma, po, 50 mg/kg, 0.25 h after po 50 mg/kg artemiside 5, read-out: Mean po circulating concentration",1390 nM
same,concentration at 0.25 h,"[1]; male, C57/BL6, mouse, plasma, po, 50 mg/kg, 0.25 h after po 50 mg/kg artemisone 7, read-out: Mean po circulating concentration",1520 nM
same,concentration at 0.25 h,"[1]; male, C57/BL6, mouse, plasma, po, 50 mg/kg, 0.25 h after po 50 mg/kg artemisox 6, read-out: Mean po circulating concentration",3530 nM
same,concentration at 0.5 h,"[1]; male, C57/BL6, mouse, plasma, po, 50 mg/kg, 0.5 h after po 50 mg/kg artemiside 5, read-out: Mean po circulating concentration",1790 nM
same,concentration at 0.5 h,"[1]; male, C57/BL6, mouse, plasma, po, 50 mg/kg, 0.5 h after po 50 mg/kg artemisone 7, read-out: Mean po circulating concentration",1140 nM
same,concentration at 0.5 h,"[1]; male, C57/BL6, mouse, plasma, po, 50 mg/kg, 0.5 h after po 50 mg/kg artemisox 6, read-out: Mean po circulating concentration",3690 nM
same,concentration at 1 h,"[1]; male, C57/BL6, mouse, plasma, po, 50 mg/kg, 1 h after po 50 mg/kg artemiside 5, read-out: Mean po circulating concentration",1670 nM
same,concentration at 1 h,"[1]; male, C57/BL6, mouse, plasma, po, 50 mg/kg, 1 h after po 50 mg/kg artemisone 7, read-out: Mean po circulating concentration",357 nM
same,concentration at 1 h,"[1]; male, C57/BL6, mouse, plasma, po, 50 mg/kg, 1 h after po 50 mg/kg artemisox 6, read-out: Mean po circulating concentration",3200 nM
same,concentration at 3 h,"[1]; male, C57/BL6, mouse, plasma, po, 50 mg/kg, 3 h after po 50 mg/kg artemiside 5, read-out: Mean po circulating concentration",179 nM
same,concentration at 3 h,"[1]; male, C57/BL6, mouse, plasma, po, 50 mg/kg, 3 h after po 50 mg/kg artemisone 7, read-out: Mean po circulating concentration",12 nM
same,concentration at 3 h,"[1]; male, C57/BL6, mouse, plasma, po, 50 mg/kg, 3 h after po 50 mg/kg artemisox 6, read-out: Mean po circulating concentration",48 nM
same,concentration at 5 h,"[1]; male, C57/BL6, mouse, plasma, po, 50 mg/kg, 5 h after po 50 mg/kg artemisox 6, read-out: Mean po circulating concentration",7 nM
same,half-life,"[1]; male, C57/BL6, mouse, plasma, po, 50 mg/kg, po 50 mg/kg, parent drug",23.4 ± 3 min
same,clearance,"[1]; male, C57/BL6, mouse, plasma, iv 5 mg/kg",88.3 mL/min/kg
same,AUC(0-inf),[1]; [6],2.5 ± 0.6 µM·h
same,MRT last,"[1]; male, C57/BL6, mouse, plasma, iv 5 mg/kg, parent drug, 0-last up to 7 h",33.6 ± 4.2 min
same,AUC(0-t),[1]; [6],2.4 ± 0.6 µM·h
same,Vd,"[1]; male, C57/BL6, mouse, plasma, iv 5 mg/kg, read-out: Vss",3 ± 0.5 L/kg
same,bioavailability,"[1]; male, C57/BL6, mouse, plasma, po 50 mg/kg vs iv 5 mg/kg, read-out: F (bioavailability)",4.9 ± 1.7%
same,Cmax,[1]; [7],1700 ± 400 nM
same,MRT last,[1]; [7],32.4 ± 7.8 min
same,AUC(0-t),[1]; [7],1.1 ± 0.1 µM·h
same,MAT (mean absorption time = MRTpo–MRTiv),[1]; po 50 mg/kg,0 h
same,EC50,Toxoplasma gondii (Tg) [2],120 nM
same,"mice surviving the infection, acute phase",[3],over 50%
same,"mice with prolonged survival, reactivation stage",Toxoplasma gondii (Tg) [4],60%
same,IC50,P. falciparum W2,1.69 nM
same,IC90,P. falciparum W2,3.42 nM
same,"neurotoxicity in vivo, effects observed",[5]; 10 mg/kg/d for 14 days by gavage in sesame oil,no effects were observed
same,"neurotoxicity in vivo, effects observed",[5]; 50 mg/kg/d for 14 days by gavage in sesame oil,induced no effects
same,EC50,HepG2; read-out: Cytotoxicity EC50 HepG2,> 50000 nM
same,SI = EC50 HepG2/IC50 P. berghei sporozoites,HepG2,> 1767
same,Maximum inhibition % P. berghei sporozoites,"P. berghei sporozoites; at 10 µM, ref S3",93.35±1.76%
same,IC50,"P. berghei sporozoites; luciferase-expressing P. berghei ANKA GFP-Luc-SMcon sporozoites in HepG2 cells, 48 h, ± SD, ref S3 (7)",28.3 nM

# — paper PMC8704606, “The Artemiside-Artemisox-Artemisone-M1 Tetrad: Efficacies against Blood Stage P. falciparum Parasites, DMPK Properties, and the Case for Artemiside” (Pharmaceutics, 2021)
